From the kinase profiling compilation of Christmann-Franck et al. (2016)

Assays:
Test in all cases: SelectScreen, TR FRET
[1] = target: PIK3C2B (human) (UniProt O00750)
[2] = target: PIK3C3 (human) (UniProt Q8NEB9)
[3] = target: PI4KB (human) (UniProt Q9UBF8)
[4] = target: MTOR (human) (UniProt P42345)

Sequence of PIK3C3 (human) (Q8NEB9 whole entry, looked up): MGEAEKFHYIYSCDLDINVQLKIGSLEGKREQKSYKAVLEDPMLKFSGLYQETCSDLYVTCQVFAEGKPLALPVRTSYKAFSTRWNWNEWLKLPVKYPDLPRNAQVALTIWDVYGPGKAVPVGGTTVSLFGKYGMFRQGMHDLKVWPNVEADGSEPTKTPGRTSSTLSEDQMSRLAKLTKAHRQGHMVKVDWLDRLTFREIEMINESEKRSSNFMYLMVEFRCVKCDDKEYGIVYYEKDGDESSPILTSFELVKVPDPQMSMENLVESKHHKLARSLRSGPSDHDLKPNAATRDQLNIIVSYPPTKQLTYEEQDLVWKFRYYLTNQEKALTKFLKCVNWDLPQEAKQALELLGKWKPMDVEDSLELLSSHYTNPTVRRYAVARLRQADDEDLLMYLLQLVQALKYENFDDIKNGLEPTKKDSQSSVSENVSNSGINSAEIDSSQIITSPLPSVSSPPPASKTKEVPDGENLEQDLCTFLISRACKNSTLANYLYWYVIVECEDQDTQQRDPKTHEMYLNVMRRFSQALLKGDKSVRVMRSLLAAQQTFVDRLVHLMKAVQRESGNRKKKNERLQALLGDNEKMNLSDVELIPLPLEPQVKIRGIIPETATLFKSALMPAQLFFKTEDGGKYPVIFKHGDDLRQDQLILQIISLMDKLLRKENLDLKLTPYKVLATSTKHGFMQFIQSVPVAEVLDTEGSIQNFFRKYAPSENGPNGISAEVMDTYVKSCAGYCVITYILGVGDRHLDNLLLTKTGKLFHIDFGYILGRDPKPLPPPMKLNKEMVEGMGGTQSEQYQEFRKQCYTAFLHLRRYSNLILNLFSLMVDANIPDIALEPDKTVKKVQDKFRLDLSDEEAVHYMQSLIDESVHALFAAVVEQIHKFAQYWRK
Sequence of PI4KB (human) (Q9UBF8 whole entry, looked up): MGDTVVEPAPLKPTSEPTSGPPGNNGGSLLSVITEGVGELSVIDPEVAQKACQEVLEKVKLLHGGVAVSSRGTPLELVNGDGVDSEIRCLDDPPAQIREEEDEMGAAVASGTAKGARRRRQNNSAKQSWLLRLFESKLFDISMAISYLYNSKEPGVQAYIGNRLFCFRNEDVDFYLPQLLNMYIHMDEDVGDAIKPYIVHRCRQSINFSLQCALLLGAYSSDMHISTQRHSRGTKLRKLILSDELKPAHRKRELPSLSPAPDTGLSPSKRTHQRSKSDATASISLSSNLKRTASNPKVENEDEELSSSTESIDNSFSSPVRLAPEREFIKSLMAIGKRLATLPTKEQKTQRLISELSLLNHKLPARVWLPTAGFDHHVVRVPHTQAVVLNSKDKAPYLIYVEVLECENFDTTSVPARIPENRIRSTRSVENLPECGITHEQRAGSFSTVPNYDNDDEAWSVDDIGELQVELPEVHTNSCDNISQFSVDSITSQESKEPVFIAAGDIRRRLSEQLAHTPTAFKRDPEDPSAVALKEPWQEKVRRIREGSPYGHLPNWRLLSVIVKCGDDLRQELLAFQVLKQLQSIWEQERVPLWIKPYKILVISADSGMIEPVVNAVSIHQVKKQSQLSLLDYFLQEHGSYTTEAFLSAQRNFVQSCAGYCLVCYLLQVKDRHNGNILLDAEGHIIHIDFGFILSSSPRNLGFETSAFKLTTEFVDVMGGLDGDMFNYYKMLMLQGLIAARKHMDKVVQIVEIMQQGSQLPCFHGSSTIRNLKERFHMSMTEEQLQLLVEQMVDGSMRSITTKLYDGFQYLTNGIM
Sequence of PIK3C2B (human) (O00750 whole entry, looked up): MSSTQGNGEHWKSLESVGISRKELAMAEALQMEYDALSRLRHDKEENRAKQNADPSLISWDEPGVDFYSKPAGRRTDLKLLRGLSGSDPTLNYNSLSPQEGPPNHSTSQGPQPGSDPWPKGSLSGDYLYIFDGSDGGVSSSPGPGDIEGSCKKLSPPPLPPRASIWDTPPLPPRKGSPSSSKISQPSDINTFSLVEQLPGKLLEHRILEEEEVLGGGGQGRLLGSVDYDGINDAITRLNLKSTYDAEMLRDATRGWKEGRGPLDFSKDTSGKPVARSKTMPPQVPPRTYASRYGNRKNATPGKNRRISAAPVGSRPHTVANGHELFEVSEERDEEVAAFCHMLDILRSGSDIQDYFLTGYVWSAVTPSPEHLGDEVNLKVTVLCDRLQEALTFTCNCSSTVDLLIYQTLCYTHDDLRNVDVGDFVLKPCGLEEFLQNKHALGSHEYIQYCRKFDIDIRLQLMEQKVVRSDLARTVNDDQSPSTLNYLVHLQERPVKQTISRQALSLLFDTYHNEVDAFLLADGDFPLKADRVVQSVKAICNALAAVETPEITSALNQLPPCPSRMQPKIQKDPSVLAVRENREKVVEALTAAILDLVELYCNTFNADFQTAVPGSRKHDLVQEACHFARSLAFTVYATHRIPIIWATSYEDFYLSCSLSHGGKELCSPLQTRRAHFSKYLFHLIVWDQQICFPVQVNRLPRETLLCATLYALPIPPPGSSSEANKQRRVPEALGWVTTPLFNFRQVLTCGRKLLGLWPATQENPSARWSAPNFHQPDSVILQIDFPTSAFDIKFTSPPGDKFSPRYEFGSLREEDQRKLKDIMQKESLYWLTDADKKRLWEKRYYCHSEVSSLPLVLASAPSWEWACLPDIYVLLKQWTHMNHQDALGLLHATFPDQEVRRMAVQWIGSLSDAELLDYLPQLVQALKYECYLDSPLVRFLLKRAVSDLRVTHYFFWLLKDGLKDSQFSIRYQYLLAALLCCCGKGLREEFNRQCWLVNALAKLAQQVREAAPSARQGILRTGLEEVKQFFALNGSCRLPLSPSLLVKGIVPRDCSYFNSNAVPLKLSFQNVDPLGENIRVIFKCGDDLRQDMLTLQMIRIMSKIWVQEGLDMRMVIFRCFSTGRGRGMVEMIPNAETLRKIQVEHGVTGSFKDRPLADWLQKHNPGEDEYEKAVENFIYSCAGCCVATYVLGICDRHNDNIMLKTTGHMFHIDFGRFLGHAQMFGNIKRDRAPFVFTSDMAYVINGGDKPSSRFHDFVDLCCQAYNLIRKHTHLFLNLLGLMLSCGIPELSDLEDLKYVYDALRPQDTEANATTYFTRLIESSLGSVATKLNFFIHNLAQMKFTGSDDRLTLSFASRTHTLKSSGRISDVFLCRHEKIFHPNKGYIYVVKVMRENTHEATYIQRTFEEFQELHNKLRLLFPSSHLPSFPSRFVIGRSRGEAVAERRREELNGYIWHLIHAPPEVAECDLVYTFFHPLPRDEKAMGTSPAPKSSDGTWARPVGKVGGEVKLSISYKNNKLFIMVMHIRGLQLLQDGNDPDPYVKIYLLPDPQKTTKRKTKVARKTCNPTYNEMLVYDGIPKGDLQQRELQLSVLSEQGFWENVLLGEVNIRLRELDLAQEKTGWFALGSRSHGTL

Cc1cc([C@@H](C)Nc2ccccc2C(=O)O)c2nc(N3CCOCC3)cc(=O)n2c1
IC50 [1]: 0.0541 µM | IC50 [2]: 3.39 µM | IC50 [3]: > 10 µM | IC50 [4]: 3.93 µM
